Measurements from patent US5658886A, “Acridinone derivative, compositions containing same and a method for using same to treat Chlamydia trachomatis” (Limited Liability Partnership "POLYSAN", priority 1993, dated 1997).
Where a name gives a salt, the structure may show the parent alone. Read-outs that look alike come from different tables or passages of the source.

Columns and labels:
[1] = test system: human immunodeficiency virus (HIV); details: 0.08 mg/ml
Procedure: The cells were grown at the Russian Medical University (RMU) in tube medium--1640 containing 20% calf foetal serum at end concentration of 0.5-0.7×10^6 cells/ml. […] The cells were then incubated for 3-4 days at 37° C. with subsequent replacement of nutrient medium. On the fifth and seventh day after infection, the presence of virus-specific antigen was established through indirect immunofluorescence assay using anti-HIV antibodies.

in vivo = details: mouse, in vivo
Procedure: (§1) Intravenous and intramuscular injections were given of 2000 mg/kg and less in two stages. The follow-up period was 14 days. The lethal dose (LD50) was calculated by the Kerber technique. […] 31, 1987.

[2] = test system: ristal-strain mongrel white mice; experiment: in vivo
Procedure: as §1

interferon = experiment: Interferon-inducing activity in mice (titers in blood); type: in vivo, BALB mice; details: for Interferon titer: dose (mg/kg): cycloferone 200, thylorone 50, prototype 400-600
Procedure: At predetermined time intervals interferon titers were measured in the blood by conventional techniques on homologous cells […] grown in 96-well plates in a CO2 -containing incubator. The test-virus was the encephalomyocarditis virus.

Splenocytes = experiment: Interferon induction in cell culture, splenocytes; type: cell-based, BALB mice
Excerpt: (§2) The initial concentration was 5×10^6 cells/milliliter. The dynamics of interferon accumulation were studied in the cultural fluid of the lymphocytes grown on plastic plates in the presence of CO2.

[3] = test system: Peripheral-blood lymphocytes; experiment: Interferon induction in cell culture, peripheral-blood lymphocytes; type: cell-based, BALB mice
Excerpt: as §2

T-lymphocytes = experiment: Interferon induction in cell culture, T-lymphocytes; type: cell-based, BALB mice
Excerpt: as §2

B-lymphocytes = experiment: Interferon induction in cell culture, B-lymphocytes; type: cell-based, BALB mice
Excerpt: as §2

hepatocytes (liver) = experiment: Anti-promotive activity: hepatocytic cohesion; type: in vivo, BALB/c mice
Procedure: Studies were performed on female BALB/c mice weighing 25.0 grams.
The compounds were administered daily for 6 days in optimal doses. Controls were given physiological solution. Six hours after the last injection the animals were sacrificed. Sections of the lung and liver were cut out, submerged in 199 medium, and cellular cohesion was measured. Measurements were performed with a micro-manipulator by modified Kuman technique. See Modianova E. A., Voprosy onkologii, 19(6): 83-88 (1973).
For each experimental point, cellular cohesion was measured in 4-5 mice. One tissue segment from each of the mice measuring 10-30 cells was examined.

C trachomatis = details: 100 mg/kg daily for 5 days
Procedure: Experiments were performed involving C trachomatis infection of non-line whim mice weighing 16-18 grams. […] Alternatively, a single tetracycline hydrochloride injection (100 mg/kg) was administered on conventional schedule for 5 days.
Therapeutic effectiveness was evaluated by cytoscopic examination of stained smears from lymph nodes and the lung for pathogenic multiplication.

Compound: Cc1cn([C@H]2C[C@H](N=[N+]=[N-])[C@@H](CO)O2)c(=O)[nH]c1=O [Azidothymidine, azidothymidine]
- Number of cells containing HIV antigen by IIFR ([1]; Day 5): 6.5%
- Number of cells containing HIV antigen by IIFR ([1]; Day 7): 4.7%

Compound: CN(C)CCOC(=O)Cn1c2ccccc2c(=O)c2ccccc21 [10-carboxymethyl-9-acridone dimethyl-aminoethylether chlorhydrate]
- LD50 at 336 h (in vivo; im): 600 mg/kg
- LD50 at 336 h (in vivo; iv): 400 mg/kg
- toxicity upon parenteral application ([2]; parenteral): low-toxicity
- level of toxicity compared to the compound of the present invention ([2]; words, vs cycloferone): same level of toxicity
- Interferon titer (interferon; 2 hours): 100 IU/ml
- Interferon titer (interferon; 4 hours): 1000 IU/ml
- interferonogenic activity compared to the compound of the present invention (interferon; words, vs cycloferone): lower interferonogenic activity

Compound: CCN(CC)CCOc1ccc2c(c1)C(=O)c1cc(OCCN(CC)CC)ccc1-2 [Thylorone]
- Interferon titer (interferon; 1 hour): < 40 IU/ml
- Interferon titer (interferon; 2 hours): < 40 IU/ml
- Interferon titer (interferon; 4 hours): < 40 IU/ml
- Interferon titer (interferon; 8 hours): 40 IU/ml
- Interferon titer (interferon; 18 hours): 640 IU/ml
- Interferon titer (interferon; 24 hours): 20 IU/ml
- Interferon titer (interferon; 48 hours): < 10 IU/ml
- Interferon titer (Splenocytes; 24 hr): 15
- Interferon titer (Splenocytes; 48 hr): 30
- Interferon titer (Splenocytes; 72 hr): 640
- Interferon titer (Splenocytes; 96 hr): 320
- Interferon titer (Splenocytes; 120 hr): 15
- Interferon titer (Splenocytes; 144 hr): < 5
- Interferon titer ([3]; 24 hr): 40
- Interferon titer ([3]; 48 hr): 80
- Interferon titer ([3]; 72 hr): 320
- Interferon titer ([3]; 96 hr): 80
- Interferon titer ([3]; 120 hr): 10
- Interferon titer ([3]; 144 hr): < 10
- Interferon titer (T-lymphocytes; 24 hr): 15
- Interferon titer (T-lymphocytes; 48 hr): 60
- Interferon titer (T-lymphocytes; 72 hr): 5000
- Interferon titer (T-lymphocytes; 96 hr): 3600
- Interferon titer (T-lymphocytes; 120 hr): 960
- Interferon titer (T-lymphocytes; 144 hr): 5
- Interferon titer (B-lymphocytes; 24 hr): 15
- Interferon titer (B-lymphocytes; 48 hr): 30
- Interferon titer (B-lymphocytes; 72 hr): 320
- Interferon titer (B-lymphocytes; 96 hr): < 10
- Interferon titer (B-lymphocytes; 120 hr): < 10
- Interferon titer (B-lymphocytes; 144 hr): 5
- Hepatocytic Cohesion (hepatocytes (liver); Intraperitoneal, 10.0 mg/kg, P >0.05): 0.053 ± 0.008 mg/1 cell
- hepatocytic cohesion indices compared to controls (hepatocytes (liver); words, vs controls): the same as in the controls

Compound: CN(C)C1C(=O)C(C(N)=O)=C(O)C2(O)C(=O)C3=C(O)c4c(O)cccc4C(C)(O)C3CC12 (stereo not shown) [Tetracycline hydrochloride, tetracycline hydrochloride]
- Effectiveness Index (C trachomatis; lung, 3 days): 1.8
- Effectiveness Index (C trachomatis; lung, 7 days): 1.0
- Effectiveness Index (C trachomatis; lymph nodes, 3 days): 0.9
- Effectiveness Index (C trachomatis; lymph nodes, 7 days): 0.6
